Patent publication US20240374631A1, “A COMPOSITION FOR IMPROVING GUT MICROBIOTA, BEHAVIOURAL PATTERN, ALPHA-SYNUCLEIN LEVELS, SLEEP PATTERN AND/OR SERUM MELATONIN” (GN Corporation Co Ltd, priority 2021, published 2024)

System: gut microbiota
Assay: Gut microbiome analysis (16S rRNA sequencing of fecal samples) in STAM model of NASH
Assay type: in vivo, C57BL/6J mice
Text: The study is reported in accordance with Animal Research: Reporting of In Vivo Experiments (ARRIVE) guidelines. C57BL/6J mice were obtained from Japan SLC, Inc. (Japan). All animals used in this study were cared for under the following guidelines: Act on Welfare and Management of Animals (Ministry of the Environment, Japan, Act No. 105 of Oct. 1, 1973), standards relating to the care and management of laboratory animals and relief of pain (Notice No. 88 of the Ministry of the Environment, Japan, Apr. 28, 2006) and the guidelines for proper conduct of animal experiments (Science Council of Japan, Jun. 1, 2006). Protocol approvals were obtained from SMC Laboratories, Japan's IACUC (Study reference no: […] Mice were maintained in a specific pathogen-free (SPF) facility under controlled conditions of temperature (23±3° C.), humidity (50±20%), lighting (12-hour artificial light and dark cycles; light from 8:00 to 20:00) and air exchange. The STAM model of NASH was induced as previously described [D10]. Mice were given a single subcutaneous injection of 200 μg streptozotocin (STZ, Sigma-Aldrich, USA) solution 2 days after birth and fed with a high-fat diet (HFD, 57 kcal % fat, Cat #HFD32, CLEA Japan, Inc., Japan) from 4-9 weeks of age. All mice develop liver steatosis and diabetes and at […] mice had established steatohepatitis, histologically. Studygroups: There were five study groups, described below. Eight mice were included in each study group. Eight NASH mice were orally administered vehicle supplemented with AFO-202 Beta Glucan at a dose of 1 mg/kg in a volume of 5 mL/kg once daily from 6 to 9 weeks of age. Eight NASH mice were orally administered vehicle supplemented with Telmisartan at a dose of 10 mg/kg once daily from 6 to 9 weeks of age. Frequency: Fecal samples were collected at the 6 weeks of age (before administration) and 9 weeks of age (before sacrifice). Procedure: At 6 weeks of age, fecal samples were collected from each mouse by clean catch method. […] A sterile petri dish was placed on the bench. Gently massage the abdomen, position the bottom of mouse over a fresh petri dish, and collect 1-2 fecal pellets. At sacrifice, fecal samples were aseptically collected from cecum. The tubes with feces were placed on ice immediately. These tubes were snap frozen in liquid nitrogen and stored at -80° C. for shipping. In this analysis, the 16S rRNA sequence data acquired by the next-generation sequencer from the fecal […] was used to perform community analysis using the QIIME2 program for microbial community analysis. The raw read data in FASTQ format output from the next-generation sequencer was trimmed to remove adapter sequences and low QV regions that may be included in the data. Cutadapt was used to remove adapter sequences from DNA sequencing reads. Trimmomatic was used as read trimming tool for Illumina NGS data. The adapter sequence was trimmed using the adapter trimming program “cutadapt” if the Trimming of the region at the end of the read sequence overlapped the corresponding sequence by at least one base (mismatch tolerance: 20%). When reads containing N were present in at least one of Read1 and Read2, both Read1 and Read2 were removed. Trimming of low QV regions was performed on the read data after processing using the QV trimming program “Trimmomatic” under the following conditions. The window of 20 bases is slid from the 5' side, and the area where the average QV is less than 20 is trimmed. After trimming, only the reads with more than 50 bases remaining in both Read1 and Read2 were taken as output. The microbial community analysis based on 16S rRNA sequence was performed on the sequence data trimmed in the previous section using the microbial community analysis program “QIIME2”. The annotation program “sklearn” included in QIIME2 is used to annotate the ASV (OTU) sequences. […]

For `CCCc1nc2c(C)cc(-c3nc4ccccc4n3C)cc2n1Cc1ccc(-c2ccccc2C(=O)O)cc1` [Telmisartan], the “Abundance Lachnospiraceae/[Ruminococcus]/gnavus” value (post, line r79) was 260, the “Abundance Bacteroidaceae/Bacteroides/—” value (post, line r80) was 1596 and the “Abundance S24-7/—/—” value (post, line r81) was 125. The “Abundance Lachnospiraceae/[Ruminococcus]/gnavus” value (post, line r83) was 281, the “Abundance Ruminococcaceae/Oscillospira/—” value (post, line r84) was 393 and the “Abundance Alcaligenaceae/Sutterella/—” value (post, line r86) was 63. For the same molecule, the “Abundance S24-7/—/—” value (post, line r87) was 54, the “Abundance Other/Other/Other” value (post, line r90) was 0 and the “Abundance Lachnospiraceae/[Ruminococcus]/gnavus” value (post, line r91) was 325. The “Abundance S24-7/—/—” value (post, line r92) was 153, the “Abundance Rikenellaceae/—/—” value (post, line r93) was 134 and the “Abundance Lachnospiraceae/[Ruminococcus]/gnavus” value (post, line r94) was 30. For the same molecule, the “Abundance Lachnospiraceae/—/—” value (post, line r95) was 359, the “Abundance Clostridiaceae/Other/Other” value (post, line r96) was 39 and the “Abundance Lachnospiraceae/—/—” value (post, line r97) was 239. The “Abundance Ruminococcaceae/Oscillospira/—” value (post, line r98) was 138, the “Abundance Enterococcaceae/Enterococcus/—” value (post, line r99) was 0 and the “Abundance Rikenellaceae/—/—” value (post, line r100) was 96. For the same molecule, the “Abundance S24-7/—/—” value (post, line r101) was 79, the “Abundance Lactobacillaceae/Lactobacillus/reuteri” value (post, line r102) was 0 and the “Abundance Bacteroidaceae/Bacteroides/acidifaciens” value (post, line r103) was 127. The “Abundance Ruminococcaceae/Oscillospira/—” value (post, line r104) was 451, the “Abundance Enterobacteriaceae/Escherichia/coli” value (post, line r105) was 0 and the “Abundance Ruminococcaceae/Oscillospira/—” value (post, line r106) was 280. The “Abundance —/—/—” value (post, line r107) was 254, the “Abundance S24-7/—/—” value (post, line r108) was 92 and the “Abundance —/—/—” value (post, line r109) was 0. The “Abundance Other/Other/Other” value (post, line r110) was 251, the “Abundance Lachnospiraceae/—/—” value (post, line r111) was 163 and the “Abundance Lachnospiraceae/[Ruminococcus]/gnavus” value (post, line r112) was 63. The “Abundance Lachnospiraceae/—/—” value (post, line r113) was 117, the “Abundance Enterobacteriaceae/Klebsiella/Other” value (post, line r114) was 33 and the “Abundance Lachnospiraceae/—/—” value (post, line r115) was 187. For the same molecule, the “Abundance —/—/—” value (post, line r117) was 261, the “Abundance Lactobacillaceae/Lactobacillus/—” value (post, line r118) was 0 and the “Abundance Other/Other/Other” value (post, line r119) was 248. The “Abundance —/—/—” value (post, line r120) was 0, the “Abundance Erysipclotrichaceae/Allobaculum/—” value (post, line r121) was 59 and the “Abundance —/—/—” value (post, line r122) was 84. For the same molecule, the “Abundance Lachnospiraceae/—/—” value (post, line r123) was 271, the “Abundance —/—/—” value (post, line r124) was 173 and the “Abundance Other/Other/Other” value (post, line r125) was 269. The “Abundance Lactobacillaceae/Lactobacillus/reuteri” value (post, line r126) was 0, the “Abundance Ruminococcaceae/Oscillospira/—” value (post, line r127) was 273 and the “Abundance Lachnospiraceae/—/—” value (post, line r128) was 139. For the same molecule, the “Abundance S24-7/—/—” value (post, line r129) was 125, the “Abundance S24-7/—/—” value (post, line r130) was 111 and the “Abundance Lachnospiraceae/—/—” value (post, line r131) was 119. For the same molecule, the “Abundance S24-7/—/—” value (post, line r133) was 74, the “Abundance Lachnospiraceae/—/—” value (post, line r134) was 98 and the “Abundance —/—/—” value (post, line r135) was 376. The “Abundance Coriobacteriaceae/Adlercreutzia/—” value (post, line r136) was 30, the “Abundance —/—/—” value (post, line r137) was 118 and the “Abundance Clostidiaceae/Other/Other” value (post, line r138) was 0. For the same molecule, the “Abundance Turicibacteraceae/Turicibacter/—” value (post, line r139) was 0, the “Abundance Ruminococcaceae/Ruminococcus/—” value (post, line r140) was 143 and the “Abundance Ruminococcaceae/Oscillospira/—” value (post, line r141) was 119. For the same molecule, the “Abundance Dehalobacteriaceae/Dehalobacterium/—” value (post, line r142) was 268, the “Abundance Staphylococcaceae/Staphylococcus/Other” value (post, line r143) was 34 and the “Abundance Rikenellaceae/—/—” value (post, line r144) was 97. The “Abundance Lachnospiraceae/—/—” value (post, line r145) was 98, the “Abundance —/—/—” value (post, line r146) was 68 and the “Abundance Staphylococcaceae/Staphylococcus/sciuri” value (post, line r147) was 41. The “Abundance —/—/—” value (post, line r148) was 0, the “Abundance Ruminococcaceae/Ruminococcus/—” value (post, line r149) was 124 and the “Abundance Coriobacteriaceae/Adlercreutzia/—” value (post, line r150) was 0. The “Abundance Ruminococcaceae/Oscillospira/—” value (post, line r151) was 120, the “Abundance Lachnospiraceae/Clostridium/Other” value (post, line r152) was 40 and the “Abundance Lachnospiraceae/Coprococcus/—” value (post, line r153) was 85. The “Abundance Desulfovibrionaceae/—/—” value (post, line r154) was 148, the “Abundance —/—/—” value (post, line r155) was 103 and the “Abundance Lachnospiraceae/—/—” value (post, line r156) was 272. For the same molecule, the “Abundance Dehalobacteriaceae/Dehalobacterium/—” value (post, line r157) was 239, the “Abundance Coriobacteriaceae/Adlercreutzia/—” value (post, line r158) was 0 and the “Abundance Lachnospiraceae/—/—” value (post, line r159) was 119. The “Abundance Lachnospiraceae/—/—” value (post, line r160) was 14, the “Abundance S24-7/—/—” value (post, line r162) was 51 and the “Abundance Streptococcaceae/Streptococcus/—” value (post, line r163) was 44. For the same molecule, the “Abundance Lachnospiraceae/[Ruminococcus]/gnavus” value (post, line r164) was 37, the “Abundance Lachnospiraceae/—/—” value (post, line r165) was 173 and the “Abundance Lachnospiraceae/—/—” value (post, line r166) was 10. For the same molecule, the “Abundance Coriobacteriaceae/Adlercreutzia/—” value (post, line r167) was 8, the “Abundance Lachnospiraceae/—/—” value (post, line r168) was 57 and the “Abundance Erysipelotrichaceae/Clostridium/cocleatum” value (post, line r169) was 119. For the same molecule, the “Abundance Lachnospiraceae/—/—” value (post, line r171) was 81, the “Abundance Bacteroidaceae/Bacteroides/—” value (post, line r172) was 468 and the “Abundance Ruminococcaceae/Oscillospira/—” value (post, line r173) was 53. For the same molecule, the “Abundance Ruminococcaceae/—/—” value (post, line r174) was 72, the “Abundance Lachnospiraceae/Other/Other” value (post, line r175) was 90 and the “Abundance Lachnospiraceae/Dorea/—” value (post, line r176) was 154. The “Abundance Lachnospiraceae/—/—” value (post, line r177) was 94, the “Abundance S24-7/—/—” value (post, line r178) was 0 and the “Abundance Lachnospiraceae/—/—” value (post, line r179) was 138. For the same molecule, the “Abundance Lactobacillaceae/Lactobaccilus/Other” value (post, line r180) was 0, the “Abundance —/—/—” value (post, line r181) was 48 and the “Abundance Ruminococcaceae/Oscillospira/—” value (post, line r182) was 101. For the same molecule, the “Abundance S24-7/—/—” value (post, line r184) was 71, the “Abundance [Mogibacteriaceae]/—/—” value (post, line r185) was 28 and the “Abundance Peptococcaceae/—/—” value (post, line r186) was 42. For the same molecule, the “Abundance —/—/—” value (post, line r187) was 40, the “Abundance —/—/—” value (post, line r188) was 213 and the “Abundance S24-7/—/—” value (post, line r189) was 19. The “Abundance: Ruminococcaceae, Oscillospira, —” value (pre (baseline), line r191) was 97 and the “Abundance: Lachnospiraceae, [Ruminococcus], gnavus” value (pre (baseline), line r192) was 33.
